Read-outs that look alike come from different tables or passages of the source.
Tests used:
[1] = test system: MCF-7 cells; assay: Cell viability WST-1 assay, MCF-7; type: cell-based; settings: Homo sapiens, MCF7; WST-1, 24 h, mean ± SD (n = 6–8); read-out: IC50 inhibition of MCF-7 cells' viability
Description: The viability of MCF-7 and MDA-MB-231 cells was determined using a colorimetric WST-1 assay (Takara, Takara Bio Europe, Saint-Germain-en-Laye, France). Both cell lines were seeded at a density of 1 × 10^4 per well on 96-well plates and were cultured for 24 h to obtain 70% confluence. The following day, the cells were treated with various concentrations of compounds 1–9 diluted in the cell culture medium ([…]). The cells were incubated with tested compounds or pure medium (control) for 24 h (37 °C, 5% CO2). Afterwards, the cells were washed with 100 μL of culture medium, and then, the reagent dissolved in the medium was added (100 μL). The plates were incubated at the standard condition for 1.5 h, and the absorbance was read at 450 nm using a microplate reader (iMARK, Bio-Rad, Bio-Rad Laboratories Inc., Hercules, CA, USA). […] The results of samples treated with the test compounds were expressed as a percentage of the control samples. The data were presented as mean ± standard deviation (SD), n = 8. IC50 values (the concentration of the tested compound that inhibited cell growth by 50%) were calculated using a concentration-response curve (GraphPad Prism, Software, San Diego, CA, USA).
The concentrations contributing to the 50% of cell growth inhibition (IC50) were calculated using nonlinear regression analysis (fitting the curve to log (concentration) vs. cellular response).

[2] = test system: MCF-7 cells; assay: Cellular uptake of metformin sulfonamides in MCF-7 cells (HPLC); type: in vitro ADME, human; settings: for uptake into MCF-7 cells / uptake in MCF-7 cells relative to metformin: 800 μmol/L; for uptake into MCF-7 cells: 10 min incubation, 37 °C; for uptake in MCF-7 cells relative to metformin: fold higher than parent drug metformin
Description: The uptake of metformin sulfonamides (1–9) in MCF-7 and MDA-MB-231 cells was studied by incubation of the cells with 10−3000 μmol/L of compounds in 250 μL of prewarmed HBSS buffer at 37 °C for 10 min. Subsequently, the cells were then washed three times with 500 μL of ice-cold HBSS and lysed with 250 μL of 0.1-M NaOH. The samples were collected, centrifuged (5 min, 1400 rpm) and the supernatants were analyzed by the HPLC method. The concentration of each compound in the cells was calculated on the basis of the standard curve prepared by spiking known amounts of every compound on the cell layers in 250 μL of 0.1-M NaOH.
The concentration of the studied sulfonamides (1–9) was assessed using the HPLC system, consisting of an Agilent 1100 binary pump (Agilent Technologies Inc., Wilmington, DE, USA), an 1100 micro-vacuum degasser, an HP 1050 autosampler and an HP 1050 variable wavelength detector (operated at 235 nm). The chromatographic separations of compounds 1–9 were conducted on an Agilent Zorbax SB-C18 analytical column (4.6 mm × 150 mm, 5 μm) using an isocratic elution of water containing 0.1% formic acid (pH ca. 3.0) and acetonitrile containing 0.1% formic acid with a changing ratio, depending on the compound. The analyses were conducted at room temperature (RT). The detailed procedure of chromatographic analysis was described in our previous paper. The studies were conducted in quadruplicates.
The protein concentrations in representative wells of each plate were assessed using a Bio-Rad protein assay according to the Bradford method (EnVision, PerkinElmer, Inc., Waltham, MA, USA).

[3] = test system: MCF-7 cells; assay: Annexin V-FITC/PI apoptosis assay, MCF-7; type: cell-based, human; settings: for Early Apoptotic [E+−] / Late Apoptotic [E++] / Living Cells [E−−] / Necrotic Cells [E−+] / Single Cells in Gate B: MCF-7, 24 h
Description: MCF-7 and MDA-MB-231 cells were seeded at a density of 5 × 10^4 per well on 24-well plates and incubated for 24 h (37 °C, 5% CO2) to obtain 70 % confluency. Then, the medium (control) or medium with the tested compounds in a volume of 250 μL was added and incubated for another 24 h. The cells were harvested using accutase (Sigma Aldrich, St. Louis, MO, USA) as a detaching reagent, collected to Eppendorf tubes and centrifuged (1100 rpm, 5 min). Afterwards, the cells were resuspended in 1 mL of a cold cell-staining buffer (Biolegend, London UK) and washed twice with a cell-staining buffer. The final step included suspension of the cell pellets in 100 μL of a binding buffer, staining with propidine iodide (PI; 10 μL) and FITC-annexin solutions (AV; 5 μL) (FITC Annexin V Apoptosis Detection Kit with PI (Biolegend, UK)). The samples were incubated for 20 min at room temperature in the dark, followed by an analysis conducted on a cytometer (CytoFlex, blue laser, 480 nm, Beckman-Coulter, Indianapolis, IN, USA). The results were analyzed using Kaluza 2.1 (Beckman-Coulter) software.
Annexin V (−) and PI (−) cells were considered living cells, annexin V (+) and PI (−) as early-apoptotic cells, annexin V (+) and PI (+) as late-apoptotic cells and annexin V (−) and PI (+) as necrotic cells.
The experiments were conducted in triplicates (n = 3). The coefficients of variation for the assay were determined (CV = 0.97–13.62%, depending on the calculated cell population).

[4] = Eadie-Hofstee analysis, transporter I
[5] = Eadie-Hofstee analysis, transporter I, read-out: Km, transporter I, MCF-7
[6] = Eadie-Hofstee analysis, transporter II
[7] = Eadie-Hofstee analysis, transporter II, read-out: Km, transporter II, MCF-7
[8] = IC50 (Comp. 1 13, Comp. 4 430, Comp. 7 55 μmol/L)
[9] = ½ × IC50 (Comp. 1 6.5, Comp. 4 215, Comp. 7 27.5 μmol/L)
[10] = Michaelis-Menten curve, read-out: Km MCF-7 (Michaelis Menten curves)
[11] = MCF-7, 430 uM, representative cytogram Figure 7A
[12] = ½ × IC50 (Comp. 1 6.5, Comp. 4 215, Comp. 7 27.5 μmol/L), listed as Comp. 4

Row | IC50 [1] [µM] | uptake into MCF-7 cells [2] [nmol/min/mg protein] | uptake in MCF-7 cells relative to metformin [2] | Structure (SMILES) | Vmax, transporter I, MCF-7 [2, 4] [nmol/min/mg] | Km [2, 5] [mM] | Vmax, transporter II, MCF-7 [2, 6] [nmol/min/mg] | Km [2, 7] [mM] | Early Apoptotic [E+−] [3, 8] [%] | Late Apoptotic [E++] [3, 8] [%] | Living Cells [E−−] [3, 8] [%] | Necrotic Cells [E−+] [3, 8] [%] | Single Cells in Gate B [3, 8] [%] | Early Apoptotic [E+−] [3, 9] [%] | Late Apoptotic [E++] [3, 9] [%] | Living Cells [E−−] [3, 9] [%] | Necrotic Cells [E−+] [3, 9] [%] | Single Cells in Gate B [3, 9] [%] | Vmax MCF-7 (Michaelis Menten curves) ([2]; Michaelis-Menten curve) [nmol/min/mg] | Km [2, 10] [mM] | further results
1 | 12.6 ± 1.2 | 1.79 ± 0.79 | approximately 14 fold | CN(C)C(=N)N=C(N)NS(=O)(=O)c1ccccc1Cl [Compound 1] | 18.53 ± 2.41 | 6.72 ± 0.982 | 62.84 ± 21.37 | 21.1 ± 7.73 | 35.79 ± 3.78 | 33.84 ± 3.17 | 29.96 ± 6.41 | 0.41 ± 0.02 | 82.66 ± 0.68 | 27.59 ± 1.03 | 38.93 ± 3.46 | 32.82 ± 4.50 | 0.67 ± 0.08 | 77.51 ± 0.92 |  |  | 
2 | 430 ± 119 |  |  | CN(C)C(=N)N=C(N)NS(=O)(=O)c1ccccc1Br [Compound 4] | 0.031 ± 0.002 | 1.54 ± 0.22 | 0.153 ± 0.022 | 8.37 ± 1.43 | 22.71 ± 2.11 | 60.16 ± 2.21 | 16.84 ± 1.93 | 0.29 ± 0.09 | 83.19 ± 0.40 | 30.69 ± 3.01 | 34.69 ± 1.51 | 34.17 ± 3.88 | 0.45 ± 0.15 | 78.90 ± 0.11 | 0.049 ± 0.02 | 2.47 ± 0.652 | Early apoptosis (representative cytogram) [3, 11]: 24.99%; Late apoptosis (representative cytogram) [3, 11]: 59.54%; Live cells (representative cytogram) [3, 11]: 15.26%; Necrotic cells (representative cytogram) [3, 11]: 0.21%; Late Apoptotic [E++] ([3]; IC50 (Comp. 1 13, Comp. 4 430, Comp. 7 55 μmol/L), listed as Comp. 4): 60.16 ± 2.21 %; Early Apoptotic [E+−] [3, 12]: 30.69 ± 3.01 %; Late Apoptotic [E++] [3, 12]: 34.69 ± 1.51 %; Living Cells [E−−] [3, 12]: 34.17 ± 3.88 %
3 | 55.1 ± 2.74 | 1.592 ± 0.943 | approximately 14 fold | CN(C)C(=N)N=C(N)NS(=O)(=O)c1ccccc1F [Compound 7] | 5.303 ± 1.334 | 2.13 ± 0.815 | 22.43 ± 12.78 | 6.14 ± 4.6 | 24.35 ± 2.19 | 43.24 ± 4.09 | 31.88 ± 4.77 | 0.54 ± 0.01 | 79.48 ± 0.82 | 23.59 ± 1.57 | 35.98 ± 4.64 | 39.85 ± 5.67 | 0.57 ± 0.03 | 78.97 ± 0.51 | 23.92 ± 7.20 | 10.8 ± 5.13 | 
